Test results as given in PubChem BioAssay (NCI).
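These data come from cells grown in 96-well plates and exposed to compound for 48 hours at five concentrations. At the GI50, growth is halved. At the TGI there is no net growth.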

How the values were obtained:
Assay in all cases: NCI tumour cell line growth inhibition, 48 h
[1] = test system: SK-MEL-2 melanoma
[2] = test system: HCT-116 colon
[3] = test system: U251 CNS
[4] = test system: MDA-MB-435
[5] = test system: SW-620 colon
[6] = test system: ACHN renal
[7] = test system: NCI-H226 lung
[8] = test system: EKVX NSCLC
[9] = test system: 786-0 renal
[10] = test system: SNB-19 CNS
[11] = test system: SF-539 CNS
[12] = test system: DU-145 prostate
[13] = test system: OVCAR-3 ovarian
[14] = test system: MALME-3M melanoma
[15] = test system: NCI-H23 lung
[16] = test system: HOP-62 NSCLC
[17] = test system: NCI-H460 lung
[18] = test system: OVCAR-5 ovarian
[19] = test system: SNB-75 CNS
[20] = test system: BT-549 breast
[21] = test system: K-562 leukemia
[22] = test system: M14 melanoma
[23] = test system: CAKI-1 renal
[24] = test system: SF-295 CNS
[25] = test system: MDA-MB-231 breast
[26] = test system: HOP-92 NSCLC
[27] = test system: SK-MEL-5 melanoma
[28] = test system: HCC-2998 colon
[29] = test system: TK-10 renal
[30] = test system: PC-3 prostate
[31] = test system: SF-268 CNS
[32] = test system: NCI/ADR-RES ovarian
[33] = test system: HCT-15 colon
[34] = test system: UACC-62 melanoma
[35] = test system: NCI-H522 lung
[36] = test system: MOLT-4 leukemia
[37] = test system: COLO 205 colon
[38] = test system: SN12C renal
[39] = test system: SK-OV-3 ovarian
[40] = test system: MCF7 breast
[41] = test system: A498 renal
[42] = test system: KM12 colon
[43] = test system: HS 578T breast
[44] = test system: CCRF-CEM leukemia
[45] = test system: RPMI-8226 leukemia
[46] = test system: T-47D breast
[47] = test system: SK-MEL-28 melanoma
[48] = test system: UO-31 renal
[49] = test system: HT29 colon
[50] = test system: IGROV1 ovarian
[51] = test system: LOX IMVI melanoma
[52] = test system: OVCAR-8 ovarian
[53] = test system: UACC-257 melanoma
[54] = test system: RXF 393 renal
[55] = test system: OVCAR-4 ovarian
[56] = test system: HL-60(TB) leukemia
[57] = test system: A549 NSCLC

C/C(=N\O)c1cccc(Nc2cc(-n3ccnc3)c3ccccc3n2)c1
GI50 [1]: 16.4 µM
TGI [1]: 31.6 µM
GI50 [2]: 13.9 µM
TGI [2]: 26.8 µM
GI50 [3]: 12.4 µM
TGI [3]: 28.7 µM
GI50 [4]: 10.9 µM
TGI [4]: 24.4 µM
GI50 [5]: 19.6 µM
TGI [5]: 42.1 µM
GI50 [6]: 7.31 µM
TGI [6]: 19.4 µM
GI50 [7]: 3.59 µM
TGI [7]: 20.9 µM
GI50 [8]: 13.2 µM
TGI [8]: 28.1 µM
GI50 [9]: 12.2 µM
TGI [9]: 28.7 µM
GI50 [10]: 17.5 µM
TGI [10]: 43.6 µM
GI50 [11]: 17.2 µM
TGI [11]: 33.5 µM
GI50 [12]: 18.9 µM
TGI [12]: 35.8 µM
GI50 [13]: 14.7 µM
TGI [13]: 39.6 µM
GI50 [14]: 11.1 µM
TGI [14]: 25.3 µM
GI50 [15]: 16.7 µM
TGI [15]: 33.6 µM
GI50 [16]: 16.6 µM
TGI [16]: 31.3 µM
GI50 [17]: > 100 µM
TGI [17]: > 100 µM
GI50 [18]: 20.9 µM
TGI [18]: 40.9 µM
GI50 [19]: 11.4 µM
TGI [19]: 26.8 µM
GI50 [20]: 17 µM
TGI [20]: 35.1 µM
GI50 [21]: 18.9 µM
TGI [21]: 73.1 µM
GI50 [22]: 11.6 µM
TGI [22]: 24.1 µM
GI50 [23]: 11.2 µM
TGI [23]: 32.9 µM
GI50 [24]: 8.16 µM
TGI [24]: 22.8 µM
GI50 [25]: 6.26 µM
TGI [25]: 24 µM
GI50 [26]: 30.2 µM
TGI [26]: 92.1 µM
GI50 [27]: 13.9 µM
TGI [27]: 27.2 µM
GI50 [28]: 17.3 µM
TGI [28]: 31.7 µM
GI50 [29]: 15.6 µM
TGI [29]: 38.8 µM
GI50 [30]: 24.8 µM
TGI [30]: 76.6 µM
GI50 [31]: > 100 µM
TGI [31]: > 100 µM
GI50 [32]: 17.2 µM
TGI [32]: 59.2 µM
GI50 [33]: 9.26 µM
TGI [33]: 22.6 µM
GI50 [34]: 6.63 µM
TGI [34]: 19.5 µM
GI50 [35]: 14.3 µM
TGI [35]: 30.7 µM
GI50 [36]: 12.6 µM
TGI [36]: 37.5 µM
GI50 [37]: 13 µM
TGI [37]: 29.1 µM
GI50 [38]: 16.2 µM
TGI [38]: 38.2 µM
GI50 [39]: 20.9 µM
TGI [39]: 60.5 µM
GI50 [40]: > 100 µM
TGI [40]: > 100 µM
GI50 [41]: 21.6 µM
TGI [41]: 39.1 µM
GI50 [42]: 10.5 µM
TGI [42]: 31.8 µM
GI50 [43]: 17.2 µM
TGI [43]: 60.9 µM
GI50 [44]: 24.9 µM
TGI [44]: 64.5 µM
GI50 [45]: 21.2 µM
TGI [45]: > 100 µM
GI50 [46]: 9.32 µM
TGI [46]: 35.8 µM
GI50 [47]: 14.3 µM
TGI [47]: 29.8 µM
GI50 [48]: 13.8 µM
TGI [48]: 34.6 µM
GI50 [49]: 14.7 µM
TGI [49]: 49.4 µM
GI50 [50]: 4.3 µM
TGI [50]: 20.5 µM

Oc1cccc2c1NCCC2
GI50 [1]: 0.433 µM
TGI [1]: 2.96 µM
GI50 [2]: 0.1 µM
TGI [2]: > 100 µM
GI50 [3]: 0.102 µM
TGI [3]: > 100 µM
GI50 [4]: 0.122 µM
TGI [4]: > 100 µM
GI50 [5]: 0.133 µM
TGI [5]: > 100 µM
GI50 [51]: 0.119 µM
TGI [51]: > 36.7 µM
GI50 [6]: 0.127 µM
TGI [6]: > 70.7 µM
GI50 [7]: 3.07 µM
TGI [7]: 35.2 µM
GI50 [8]: 1.78 µM
TGI [8]: > 100 µM
GI50 [9]: 0.734 µM
TGI [9]: > 100 µM
GI50 [10]: 0.164 µM
TGI [10]: > 100 µM
GI50 [52]: 0.129 µM
TGI [52]: 22.3 µM
GI50 [11]: 0.14 µM
TGI [11]: > 47.3 µM
GI50 [12]: 0.229 µM
TGI [12]: 54.8 µM
GI50 [13]: 0.0425 µM
TGI [13]: 2.59 µM
GI50 [14]: 0.135 µM
TGI [14]: 98.9 µM
GI50 [15]: 0.103 µM
TGI [15]: > 37 µM
GI50 [16]: 0.146 µM
TGI [16]: 42.5 µM
GI50 [17]: 0.103 µM
TGI [17]: 4.66 µM
GI50 [18]: 4.35 µM
TGI [18]: > 100 µM
GI50 [19]: 0.159 µM
TGI [19]: > 100 µM
GI50 [20]: 0.541 µM
TGI [20]: > 100 µM
GI50 [21]: 0.141 µM
TGI [21]: > 73.9 µM
GI50 [22]: 0.142 µM
TGI [22]: 15.6 µM
GI50 [23]: 2.24 µM
TGI [23]: 16.6 µM
GI50 [24]: 0.139 µM
TGI [24]: > 22.6 µM
GI50 [25]: 0.183 µM
TGI [25]: > 100 µM
GI50 [26]: 0.0231 µM
TGI [26]: 0.066 µM
GI50 [27]: 0.109 µM
TGI [27]: 1.85 µM
GI50 [53]: 1.12 µM
TGI [53]: 5.83 µM
GI50 [28]: 3.67 µM
TGI [28]: > 89.7 µM
GI50 [54]: 0.177 µM
TGI [54]: 32.7 µM
GI50 [29]: 1.96 µM
TGI [29]: > 100 µM
GI50 [30]: 0.119 µM
TGI [30]: > 100 µM
GI50 [31]: 0.244 µM
TGI [31]: > 67.2 µM
GI50 [32]: 1.25 µM
TGI [32]: 30.4 µM
GI50 [33]: 0.19 µM
TGI [33]: > 100 µM
GI50 [55]: 1.65 µM
TGI [55]: > 100 µM
GI50 [34]: 0.144 µM
TGI [34]: 4.51 µM
GI50 [35]: 0.0937 µM
TGI [35]: 1.75 µM
GI50 [36]: 1.27 µM
TGI [36]: > 100 µM
GI50 [37]: 2.84 µM
TGI [37]: 12.9 µM
GI50 [38]: 0.121 µM
TGI [38]: > 76.2 µM
GI50 [56]: 0.194 µM
TGI [56]: 7.84 µM
GI50 [57]: 0.111 µM
TGI [57]: > 32.2 µM
GI50 [39]: 0.891 µM
TGI [39]: > 100 µM
GI50 [41]: 2.57 µM
TGI [41]: 9.07 µM
GI50 [42]: 0.903 µM
TGI [42]: > 100 µM
GI50 [43]: 0.183 µM
TGI [43]: > 100 µM
GI50 [44]: 0.219 µM
TGI [44]: > 100 µM
GI50 [45]: 0.12 µM
TGI [45]: > 100 µM
GI50 [46]: 0.581 µM
TGI [46]: 96.2 µM
GI50 [47]: 2.19 µM
TGI [47]: > 100 µM
GI50 [48]: 0.075 µM
TGI [48]: 13.5 µM
GI50 [49]: 5.19 µM
TGI [49]: > 100 µM
GI50 [50]: 0.745 µM
TGI [50]: > 100 µM
